Source: US11325892B2, “Compounds and methods for treating cancer” (Mayo Foundation for Medical Education and Research, priority 2014, dated 2022)
Where two headings read alike, the source gives them in different places.

Columns and labels:
Assay type in all cases: cell-based
[1] = system: BiP and CHOP expression in A498 and ACHN cells; experiment: Western blot for UPR markers BiP and CHOP; settings: EC50 dose; both cell lines; blocked with concomitant OA treatment
Experimental: Protein extraction and western blot analysis was performed as previously described (Copland J A, Marlow L A, Kurakata S, et al. Novel high-affinity PPARgamma agonist alone and in combination with paclitaxel inhibits human anaplastic thyroid carcinoma tumor growth via p21WAF1/CIP1. Oncogene. Apr 13 2006; 25(16):2304-2317). Primary antibodies included SCD1 (Sigma-Aldrich, #HPA012107), BiP (Cell Signaling, #3183), CHOP (Cell Signaling, #2895), sXBP1(Santa Cruz Biotechnology, #sc-7160), PARP(Cell Signaling, #9542), and β-actin (Sigma-Aldrich, #A5441).
(§1) Activating transcription factor 6 (ATF6) is a key regulator of the unfolded protein response (UPR) that recognizes unfolded protein response elements (UPRE) in the promoter regions of several key mediators of the ER stress response, initiating their transcription (Wang Y, Shen J, Arenzana N, Tirasophon W, Kaufman R J, Prywes R. Activation of ATF6 and an ATF6 DNA binding site by the endoplasmic reticulum stress response. J Biol Chem. Sep. 1, 2000; 275(35):27013-27020). A498 and ACHN transfected with an ATF6-UPRE luciferase reporter were treated with the EC50 doses of ChemBL375265, SSI-1, SSI-4, SSI-3, and SSI-2 with or without OA supplementation were evaluated in order to determine whether the identified compounds could recapitulate activation of the UPR. […] Upregulation of the UPR markers BiP (heat shock 70 kDa protein, GRP78) and CHOP (damage inducible transcript 3, DDIT3) was evaluated by Western blot in A498 and ACHN cells treated with the EC50 doses of ChemBL375265, SSI-1, SSI-4, SSI-3, and SSI-2 with or without OA supplementation.

[2] = system: ATF6-UPRE luciferase reporter in A498 and ACHN cells; experiment: ATF6-UPRE luciferase reporter assay; settings: EC50 dose, 24H; both cell lines A498 and ACHN; completely blocked with OA
Experimental: A498 and ACHN cells were transiently transfected with p5×ATF6-GL3 UPR luciferase reporter (Addgene plasmid#11976) and pRL-CMV-renilla (Promega) using Lipofectamine 2000 (Invitrogen). Cells were treated as indicated for 24H, prior to collection and analysis using Promega Dual Luciferase assay kit per manufacturer's specifications. Luciferase activity was measured using Veritas Luminometer (Promega); and results are reported as relative luminescence.
as §1

SNU449 HCC cells = experiment: SNU449 cell proliferation (cellular DNA, Hoechst); settings: Homo sapiens
Experimental: SNU449 HCC cells were plated at 20,000 cells/well in 12-well plates. The next day, cells were treated with SSI-4, sorafenib or sorafenib plus SSI-4 at the indicated doses. […] On day 5, cells were frozen, DNA isolated and quantitated by […] (Hoechst reagent) in a spectrophotometer. Cellular DNA is directly proportional to cell number and is commonly used as a measure of cell number. All doses are in replicates of three with the mean +/−standard deviation determined.

[3] = system: A498, ACHN, and Caki1 cell lines; experiment: Oleic acid (OA) rescue assay of cell proliferation in ccRCC cells; settings: EC50 dose of compound with OA (5 μg/μL); all three cell lines
Experimental: (§2) Cells were seeded at 5,000 cells/well in clear-bottom 96-well plates in triplicate in Maintenance Media. Drug treatment was applied at a concentration of 1:1000 in reduced serum (3%) Maintenance Media. After 72 hours, cells were washed with PBS, and stored at −80° C. prior to analysis using CyQuant® Proliferation Analysis Kit (Invitrogen) as per manufacturers' protocol for relative fluorescence units. Alternatively, cells were plated 2×10^5/well in 12-well plates (Midwest Scientific) in triplicate prior to drug treatment. After 120 hour treatment, cell number was established using a Coulter Particle Counter (Beckman). Or, cells were plated (0.5 or 1×10^5/well) in 24-well plates (Midwest Scientific), 3×. After 72 hour treatment, cell number established using Coulter Particle Counter (Beckman). Oleic acid-albumin (Sigma Aldrich) was added to media at 5 μM, and was applied adjuvant to drug treatment. Drug stocks were prepared in DMSO (Sigma) at 1000×. EC50 dosing per cell line was calculated using CalcuSyn® analytical software.
A498, ACHN, and Caki1 cell lines were treated with the EC50 dose of each MF-438, ChemBL375265, SSI-1, SSI-4, SSI-3, and SSI-2 with or without concomitant application of OA (5 μg/μL). […] Representative images of A498 cell morphology and density treated with each compound +/−OA are shown in (FIG. 2B).

[4] = system: HK2, a transformed renal epithelial cell line; experiment: High-throughput proliferative screen, non-cancerous cells
Experimental: as §2
In order to identify potential SCD1 inhibitors, a high-throughput proliferative-based screening method was used, with four ccRCC cell lines including A498, ACHN, Caki1, and Caki2. The SCD1 inhibitor MF-438 was included as a positive control. Known compounds ChemBL375265 (Liu G, Lynch J K, Freeman J, et al. Discovery of potent, selective, orally bioavailable stearoyl-CoA desaturase 1 inhibitors. Journal of medicinal chemistry. Jun. 28, 2007; 50(13): 3086-3100) (SetA.100) and SAR707 (Voss M D, Zoller G, Matter H, et al. Discovery and pharmacological characterization of SAR707 as novel and selective small molecule inhibitor of stearoyl-CoA desaturase (SCD1). European journal of pharmacology. May 5, 2013; 707(1-3): 140-146) (TC03.100) were included as single-blinded positive controls, and are indicated with an asterisk (*). […]

kidney cancer cells = experiment: Combination with mTor inhibitor temsirolimus, cell proliferation; settings: different concentrations with 0, 0.1, 1, and 10 nM temsirolimus

SMILES | BiP and CHOP expression [1] | luciferase activity [2] | IC50 (SNU449 HCC cells; SNU-449, SNU449, read-out: IC50 (dose at which 50% of cell proliferation is inhibited)) | rescue of cell proliferation with OA [3] | reduction in cell proliferation [4] | kidney cancer cell proliferation (kidney cancer cells) | IC50 (SNU449 HCC cells; SNU-449, read-out: IC50 (dose at which 50% of cell proliferation is inhibited))
CNC(=O)c1ccnc(NC(=O)N2CCC(Oc3ccccc3Cl)CC2)c1 [SSI-4, 2-{[4-(2-Chlorophenoxy)piperidine-1-carbonyl]amino}-N-methylpyridine-4-carboxamide] | strongly induced both BiP and CHOP expression | significant upregulation of luciferase activity | 3.2 nM | Near total rescue of cell proliferation | approximately 20% | reduced kidney cancer cell proliferation | –
CNC(=O)c1cc(Oc2ccc(NC(=O)Nc3ccc(Cl)c(C(F)(F)F)c3)cc2)ccn1 [sorafenib] | – | – | – | – | – | – | 2000 nM
